Patent publication US20230250096A1, “SUBSTITUTED PHENYL-1H-PYRROLO[2,3-c] PYRIDINE DERIVATIVES” (Janssen Pharmaceutica NV, priority 2021, published 2023)

Assays:
[1] = test system: MEIS1 mRNA expression; assay: MEIS1 mRNA expression assay (Quantigene Singleplex) in MOLM14 cells; format: cell-based, human; conditions: 48 hours incubation
How it was run: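 MOLM14 cells, 3,750/well, exposed to increasing compound concentrations for 48 h. MEIS1 mRNA measured by QuantiGene Singleplex branched-DNA hybridization (lysis 45 min, hybridization 18–22 h, both 55 °C), normalized to RPL28. IC50 fitted to background-corrected fold change versus DMSO.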

[2] = biological target: T1, menin/MLL (terbium chelate-labeled menin, FITC-MBM1 peptide) (Homo sapiens, UniProt O00255, T541A); assay: Menin/MLL homogenous time-resolved fluorescence (HTRF) assay; format: binding; conditions: 30 min incubation
T1 construct: Menin (a.a 1-610-6xhis tag, 2.3 mg/mL in 20 mM Hepes)
T1 sequence (O00255 with tags, fused parts or gaps T541A): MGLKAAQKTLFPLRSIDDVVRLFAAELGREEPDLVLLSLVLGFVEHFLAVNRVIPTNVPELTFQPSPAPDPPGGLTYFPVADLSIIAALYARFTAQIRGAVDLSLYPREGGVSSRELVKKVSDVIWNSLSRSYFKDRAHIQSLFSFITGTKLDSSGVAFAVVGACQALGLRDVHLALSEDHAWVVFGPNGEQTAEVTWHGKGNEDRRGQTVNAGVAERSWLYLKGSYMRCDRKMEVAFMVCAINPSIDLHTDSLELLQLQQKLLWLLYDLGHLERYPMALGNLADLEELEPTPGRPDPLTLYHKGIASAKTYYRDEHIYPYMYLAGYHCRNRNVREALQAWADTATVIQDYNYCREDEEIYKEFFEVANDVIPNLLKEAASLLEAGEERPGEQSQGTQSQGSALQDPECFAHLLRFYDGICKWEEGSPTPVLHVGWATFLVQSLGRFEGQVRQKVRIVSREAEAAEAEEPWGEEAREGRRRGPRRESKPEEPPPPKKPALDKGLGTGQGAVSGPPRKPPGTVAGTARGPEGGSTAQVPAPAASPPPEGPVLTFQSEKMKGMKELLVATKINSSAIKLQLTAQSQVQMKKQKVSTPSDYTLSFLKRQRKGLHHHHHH
How it was run: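 Terbium-labeled menin (a.a. 1-610, His-tagged; […]) pre-incubated 30 min with compound, then 75 nM FITC-MBM1 peptide added for 15 min at ambient temperature in Tris pH 7.5 buffer, 0.5% DMSO. HTRF 520/490 nm ratio read; IC50 from 11-point four-fold titrations, typically from 10 μM.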

Row | Structure (SMILES) | IC50 ([1]; Homo sapiens, MOLM-14, 48 h) [nM] | IC50 [2] [nM] | IC50 [1] [nM]
1 | Cc1cncc2c1c(CC1CCN(CC3CCN(C(=O)CCO)CC3)C1)cn2-c1ccc(F)cc1C(=O)N(C)C(C)C (single isomer, unassigned) [Compound 82] | 11 | ~0.035 | 
2 | CC(=O)N1CCC[C@H](CN2CC(Cc3cn(-c4ccc(F)cc4C(=O)N(C)C(C)C)c4cncc(C)c34)C2)C1 (single isomer, unassigned) [Compound 90a] | ~127 | 0.391 | 
3 | CC(=O)N1CC[C@@H](CN2CCC(Cc3cn(-c4ccc(F)cc4C(=O)N(C)C(C)C)c4cncc(C)c34)C2)C1 (single isomer, unassigned) [Compound 99] | ~792 | 0.217 | 
4 | CC(=O)N1CC[C@H](CN2CCC(Cc3cn(-c4ccc(F)cc4C(=O)N(C)C(C)C)c4cncc(C)c34)C2)C1 (single isomer, unassigned) [Compound 100] | 434 | 0.165 | 
5 | CC(=O)NC(C)CN1CCC(Cc2cn(-c3ccc(F)cc3C(=O)N(C)C(C)C)c3cncc(C)c23)C1 (single isomer, unassigned) [Compound 119a] |  | 0.906 | > 1000
6 | CC(=O)N[C@@H](C)CN1CC[C@H](Cc2cn(-c3ccc(F)cc3C(=O)N(C)C(C)C)c3cncc(C)c23)C1 (single isomer, unassigned) [Compound 119b] | > 1000 | 0.569 | 
7 | Cc1cncc2c1c(CC1CNC(CC3CCOCC3)C1)cn2-c1ccc(F)cc1C(=O)N(C)C(C)C (single isomer, unassigned) [Compound 134b] |  | 0.988 | > 1000
8 | Cc1cncc2c1c(C[C@@H]1CCN(C[C@@H]3CCCCO3)C1)cn2-c1ccc(F)cc1C(=O)N(C)C(C)C (single isomer, unassigned) [Compound 147b] | ~105 | 0.073 | 
9 | CC(=O)N1CCC([C@H](C)N2CC(Cc3cn(-c4ccc(F)cc4C(=O)N(C)C(C)C)c4cncc(C)c34)C2)CC1 (single isomer, unassigned) [Compound 151] | 1350 | 3.77 | 
10 | COC[C@@H](C1CCCCO1)N1CC[C@@H](Cc2cn(-c3ccc(F)cc3C(=O)N(C)C(C)C)c3cncc(C)c23)C1 (single isomer, unassigned) [Compound 165a] | ~180 | 0.173 | 
11 | Cc1cncc2c1c(C[C@H]1CCN([C@@H](C)C3CCOCC3)C1)cn2-c1ccc(F)cc1[S@](=N)(=O)C(C)C (single isomer, unassigned) [Compound 181b] | 1910 | 4.58 | 
12 | Cc1cncc2c1c(C[C@@H]1CCN([C@H](C)C3CCOCC3)C1)cn2-c1ccc(F)cc1[S@@](=N)(=O)C(C)C (single isomer, unassigned) [Compound 182a] | 287 | 0.462 | 
13 | Cc1cncc2c1c(C[C@H]1CCN([C@H](C)C3CCOCC3)C1)cn2-c1ccc(F)cc1[S@@](=N)(=O)C(C)C (single isomer, unassigned) [Compound 183a] | 307 | 0.37 | 
14 | Cc1cncc2c1c(C[C@H]1CCN([C@@H](C)C3CCOCC3)C1)cn2-c1ccc(F)cc1[S@@](=N)(=O)C(C)C (single isomer, unassigned) [Compound 183b] | ~2040 | 2.61 | 
15 | Cc1cncc2c1c(CC1CCN(CC3CNC(=O)C3)CC1)cn2-c1ccc(F)cc1C(=O)N(C)C(C)C (single isomer, unassigned) [Compound 186a] | 419 | 0.447 | 
16 | Cc1cncc2c1c(CC1CCN(C[C@@H]3CNC(=O)C3)CC1)cn2-c1ccc(F)cc1C(=O)N(C)C(C)C (single isomer, unassigned) [Compound 186b] | 504 | 0.932 | 
17 | CC(=O)N1CCC(CN2CC[C@@H](Cc3cn(-c4ccc(F)cc4[S@@]4(=O)=NCCC4)c4cncc(C)c34)C2)CC1 (single isomer, unassigned) [Compound 214a] | ~605 | 1.29 | 

The remaining compounds from weak to strong by IC50 [2], led by results:

Row | IC50 ([1]; Homo sapiens, MOLM-14, 48 h) [nM] | IC50 [2] [nM] | IC50 [1] [nM] | Structure (SMILES)
18 | > 1000 | 30.7 |  | CC(=O)N1CCC(CN2CC[C@H](Cc3cn(-c4ccc(F)cc4[S@@]4(=O)=NCCC4)c4cncc(C)c34)C2)CC1 (single isomer, unassigned) [Compound 224a]
19 | ~7280 | 11.7 |  | CC(=O)N1CCC(CN2CC[C@@H](Cc3cn(-c4ccc(F)cc4[S@]4(=O)=NCCC4)c4cncc(C)c34)C2)CC1 (single isomer, unassigned) [Compound 214b]
20 | ~2810 | 7.29 |  | Cc1cncc2c1c(C[C@@H]1CCN([C@@H](C)C3CCOCC3)C1)cn2-c1ccc(F)cc1[S@](=N)(=O)C(C)C (single isomer, unassigned) [Compound 180b]
21 |  | 3.27 | ~5120 | CC(=O)NC(C)CN1CCC(Cc2cn(-c3ccc(F)cc3C(=O)N(C)C(C)C)c3cncc(C)c23)C1 (single isomer, unassigned) [Compound 103]
22 | 1770 | 3.1 |  | Cc1cncc2c1c(C[C@@H]1CCN([C@@H](C)C3CCOCC3)C1)cn2-c1ccc(F)cc1[S@@](=N)(=O)C(C)C (single isomer, unassigned) [Compound 182b]
23 | ~2300 | 1.63 |  | Cc1cncc2c1c(CC1CN([C@@H](C)C3CCS(=O)(=O)CC3)C1)cn2-c1ccc(F)cc1C(=O)N(C)C(C)C (single isomer, unassigned) [Compound 213b]
24 | ~487 | 1.01 |  | CN=[S@@](=O)(c1cc(F)ccc1-n1cc(C[C@@H]2CCN(CC3CCN(C(C)=O)CC3)C2)c2c(C)cncc21)C(C)C (single isomer, unassigned) [Compound 128c]
25 | 1150 | 0.567 |  | Cc1cncc2c1c(CC1CN([C@H](C)C3CCS(=O)(=O)CC3)C1)cn2-c1ccc(F)cc1C(=O)N(C)C(C)C (single isomer, unassigned) [Compound 213a]
26 |  | 0.425 | > 1000 | Cc1cncc2c1c(CC1CNC(CC3CCOCC3)C1)cn2-c1ccc(F)cc1C(=O)N(C)C(C)C (single isomer, unassigned) [Compound 134d]
27 |  | ~0.34 | 43 | CC(=O)N1CCC(N2CC[C@H](Cc3cn(-c4ccc(F)cc4C(=O)N(C)C(C)C)c4cncc(C)c34)C2)C(C)C1 (single isomer, unassigned) [Compound 137b]
28 | 103 | 0.263 |  | CC(=O)N1CCC[C@@H](CN2CC(Cc3cn(-c4ccc(F)cc4C(=O)N(C)C(C)C)c4cncc(C)c34)C2)C1 (single isomer, unassigned) [Compound 90b]
29 |  | 0.161 | 153 | Cc1cncc2c1c(CC1CCN(CC3CCN(C(=O)CC4CS(=O)(=O)C4)CC3)C1)cn2-c1ccc(F)cc1C(=O)N(C)C(C)C (single isomer, unassigned) [Compound 108]
30 | 114 | 0.156 |  | Cc1cncc2c1c(C[C@H]1CCN(CC3CCS(=O)(=O)CC3)C1)cn2-c1ccc(F)cc1C(=O)N(C)C(C)C (single isomer, unassigned) [Compound 124]
31 | ~810 | 0.122 |  | Cc1cncc2c1c(C[C@@H]1CCN([C@H]3CCNC(=O)CC3)C1)cn2-c1ccc(F)cc1C(=O)N(C)C(C)C (single isomer, unassigned) [Compound 139a]
32 | 716 | 0.087 |  | Cc1cncc2c1c(C[C@@H]1CCN([C@@H]3CCNC(=O)CC3)C1)cn2-c1ccc(F)cc1C(=O)N(C)C(C)C (single isomer, unassigned) [Compound 139b]
33 |  | 0.073 | 119 | Cc1cncc2c1c(CC1CNC(CC3CCOCC3)C1)cn2-c1ccc(F)cc1C(=O)N(C)C(C)C (single isomer, unassigned) [Compound 134c]
34 | 7 | ~0.056 |  | Cc1cncc2c1c(C[C@H]1CCN(CC3CCN(C(=O)C4CC4)CC3)C1)cn2-c1ccc(F)cc1C(=O)N(C)C(C)C (single isomer, unassigned) [Compound 135]
35 | 13 | 0.049 |  | Cc1cncc2c1c(C[C@H]1CCN(CC3CCN(C(=O)C(C)C)CC3)C1)cn2-c1ccc(F)cc1C(=O)N(C)C(C)C (single isomer, unassigned) [Compound 121]
36 | 27 | 0.042 |  | Cc1cncc2c1c(CC1CCN(CC3CCN(C(=O)CO)CC3)C1)cn2-c1ccc(F)cc1C(=O)N(C)C(C)C (single isomer, unassigned) [Compound 87]
37 | 104 | 0.039 |  | Cc1cncc2c1c(CC1CCN(CC3CCN(C(=O)CC4CS(=O)(=O)C4)CC3)C1)cn2-c1ccc(F)cc1C(=O)N(C)C(C)C (single isomer, unassigned) [Compound 106]
38 |  | 0.032 | 86 | Cc1cncc2c1c(CC1CNC(CC3CCOCC3)C1)cn2-c1ccc(F)cc1C(=O)N(C)C(C)C (single isomer, unassigned) [Compound 134a]
